For test [1], the system named is PBS2 TMP phosphohydrolase (T001), Thymidylate 5'-phosphohydrolase derived from Bacteriophage PBS2, SEQ ID NO: 3. The note with it: Preferred substrate, References: Methods Enzymol. 51:285-290 (1978), Also In house data; cited from earlier work.
In test [2] the target is T1, Human mitochondrial 5'doxyribonucleotidase NT5M (hdNT-2) (Homo sapiens, UniProt Q9NPB1). To be noted: Preferred substrate, References: Biochem. 46:13809-13818 (2007), Biochemical Pharmacol. 66: 471-479 (2003); cited from earlier work.
The target in test [3] is Human cytosolic 5'deoxyribonucleotidase hdNT-1 (Homo sapiens, UniProt Q8TCD5). The note with it: Preferred substrate, References: J. Biol. Chem. 265:6589-6595 (1990), Biochemical Pharmacol. 66: 471-479 (2003); cited from earlier work.
The target of test [4] is Murine cytosolic 5'deoxyribnucleotidase mdNT-1 (Mus musculus, UniProt Q9JM14). The note with it: Preferred substrate, References: J. Biol. Chem. 275:5409-5415 (1990), Biochemical Pharmacol. 66: 471-479 (2003); cited from earlier work.
Test [5] concerns the target T1, Human mitochondrial 5'doxyribonucleotidase NT5M (hdNT-2). As to the kind of experiment: Preferred substrate (km), Table 4: NT5M (hdNT-2). The note with it: human NT5M compared with T001, according to Table 4. In kind it is biochemical.

Murine cytosolic 5'deoxyribnucleotidase mdNT-1, sequence (Q9JM14 whole entry): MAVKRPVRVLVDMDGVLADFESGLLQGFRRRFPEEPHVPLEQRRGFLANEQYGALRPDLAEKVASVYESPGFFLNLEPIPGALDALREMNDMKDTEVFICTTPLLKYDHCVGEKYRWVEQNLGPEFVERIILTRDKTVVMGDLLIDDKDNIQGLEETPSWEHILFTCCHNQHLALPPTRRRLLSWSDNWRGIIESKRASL
Human cytosolic 5'deoxyribonucleotidase hdNT-1, sequence (Q8TCD5 whole entry): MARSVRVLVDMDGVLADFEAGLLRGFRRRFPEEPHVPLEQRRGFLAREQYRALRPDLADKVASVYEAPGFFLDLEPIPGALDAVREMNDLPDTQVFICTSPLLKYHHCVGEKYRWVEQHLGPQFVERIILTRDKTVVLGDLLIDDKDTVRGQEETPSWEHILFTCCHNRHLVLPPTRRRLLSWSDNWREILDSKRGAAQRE
T1 sequence (Q9NPB1 32-228): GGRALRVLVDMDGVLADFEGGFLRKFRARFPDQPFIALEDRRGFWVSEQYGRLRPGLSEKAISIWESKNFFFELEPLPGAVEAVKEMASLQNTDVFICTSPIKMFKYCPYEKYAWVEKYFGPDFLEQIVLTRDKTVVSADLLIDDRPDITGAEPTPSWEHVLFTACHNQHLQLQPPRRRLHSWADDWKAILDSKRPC

For `Nc1nc2c(ncn2[C@H]2C[C@H](O)[C@@H](COP(=O)(O)O)O2)c(=O)[nH]1` [dGMP], the Km (commonly the substrate concentration at which the rate is half of its maximum) in test [1] was 700 µM; in test [2], 90 µM; in test [3], 3300 µM; in test [4], 1200 µM.

Turning to `Nc1ncnc2c1ncn2[C@H]1C[C@H](O)[C@@H](COP(=O)(O)O)O1` [dAMP], the Km was 3000 µM in test [3] and 1000 µM in test [4].

Consider `O=c1ccn([C@H]2C[C@H](O)[C@@H](COP(=O)(O)O)O2)c(=O)[nH]1` [dUMP], for which the Km is 800 µM in test [1], 160 µM in test [2], 1500 µM in test [3] and 800 µM in test [4].

Turning to `Cc1cn([C@H]2C[C@H](O)[C@@H](COP(=O)(O)O)O2)c(=O)[nH]c1=O` [dTMP, thymidylate], the “affinity for dTMP, times lower” value in test [5] is recorded as “about 30 times”. The Km in test [1] was 10 µM; in test [2], 300 µM; in test [3] it was 1500 µM; in test [4], 1400 µM.

(Values after WO2023132380A1, “Polynucleotide for cancer treatment encoding 5'-nucleotidase modified protein” (Bpgene Co Ltd, priority 2022, dated 2023).)
